Test results published in patent US11779532B2, “Topical compositions and methods” (Mary Kay Inc., priority 2020, dated 2023).

Tested on: MELANODERM™ MEL-300B tissue constructs
Assay: Overall Melanin Level Assay (MELANODERM skin analog, Solvable Melanin Assay)
Assay type: cell-based, human
Settings: for Absorbance (relative melanin content): MEL-300B tissue (donors with black complexion), 25 μl applied every other day for 10 days, read at 490 nm, 2% kojic acid solution, 0.4% hydroquinone solution, formulation of Table 1, untreated control 0.927
Procedure: This bioassay was used to analyze the effect of compounds on melanogenesis. […] The endpoint of this assay was spectrophotometric measurement of melanin production and cellular viability of tissue constructs derived from donors. The skin lightening efficacy of the formulation in Table 1 was evaluated using a skin analog sold by MatTek Corp. under the tradename MELANODERM™. Tissue constructs derived from donors with a black complexion (MELANODERM™ MEL-300B) were used. Tissue constructs derived from people with a black complexion have melanocytes with increased pigmentation versus those of people with a white or brown complexion melanocytes. MEL-300B tissue inserts were placed into the wells of 12-well plates filled with maintenance medium and pre-equilibrated in a humidified 37° C., 5% CO2 incubator overnight prior to applying treatment. After removal of the pre-equilibration medium, 25 μl of the formulation of Table 1 was applied directly to the MEL-300B stratum corneum by pipetting with a positive displacement pipette into the cell culture insert which contained the MEL-300B tissue inserts. Treatments were done in triplicates. 25 μl of 2% Kojic Acid (KA) solution and 25 μl of 0.4% Hydroquinone (HQ) solution were used as positive controls and 25 μl of sterile ultrapure water served as negative control. The MEL-300B tissue inserts were treated every other day for 10 consecutive days. Maintenance medium was replaced every other day with fresh medium. After treatment, the MEL-300B tissue inserts were submerged in phosphate buffered saline (PBS) for 10 minutes to remove any residual phenol red and test article from the tissue. After the MEL-300B tissue inserts were rinsed off, viability was measured on one of the tissues using the MTT viability assay (MTT Kit part #: MTT-100). The relative melanin content was measured using the Solvable Melanin Assay. Briefly, the tissues were removed from the inserts using fine-point forceps. Each tissue was blotted dry and placed in a 1.7 ml microfuge tube. […] Absorbance of the plate was read at 490 nm.

| SMILES | effect on melanin compared to untreated control / positive control (in words) (MEL-300B tissue (dark skin model), topical application) | Absorbance (relative melanin content) |
| --- | --- | --- |
| Oc1ccc(O)cc1 [Hydroquinone] | increase melanin compared to the untreated control | 1.222 |
| O=c1cc(CO)occ1O [Kojick Acid, Kojic Acid] |  | 0.629 |
